For data set [1], the system named is P. falciparum (NF54) stage V gametocytes. Briefly: Stage V gametocyte viability assay (MitoTracker Red CMXRos high content imaging). The note with it: Plasmodium falciparum; for inhibition at 2 µM: read-out: Stg V Gam primary screen: Inhibition % (2uM) (n=2). It counts as cell-based, Plasmodium falciparum.
The test system of data set [2] is HepG2-A16-CD81 hepatocytes. Briefly: HepG2 cytotoxicity screening (CellTiter-Glo). To be noted: for HepG2 cytotoxicity 12pt dose response: Maximum inhibition (%): 12pt dose response. On the technique in general: In ATP-based viability assays light output follows the ATP content of the culture.
Data set [3] can be described thus: HepG2 cytotoxicity screening (CellTiter-Glo). The note with it: human, uninfected HepG2-A16-CD81 (EGFP) hepatocytes.
For data set [4], the system named is P. berghei liver stage (PbLuc). Briefly: P. berghei luciferase liver stage (PbLuc) assay in HepG2-A16-CD81 hepatocytes. It counts as cell-based, Plasmodium berghei. To be noted: Plasmodium berghei; for IC50: HepG2-A16-CD81, 12pt dose response, read-out: PbLuc 12pt dose response: IC50; for Emax: HepG2-A16-CD81, 48 h, 12pt dose response, maximum inhibition.
Data set [5] deals with recombinant firefly luciferase (Photinus pyralis, UniProt P08659). Briefly: biochemical. To be noted: dose response; for Emax: maximum inhibition, read-out: rLuc inhibition dose response: Maximum inhibition (%); for IC50: read-out: rLuc inhibition dose response: IC50.
Chain of recombinant firefly luciferase (P08659 whole entry): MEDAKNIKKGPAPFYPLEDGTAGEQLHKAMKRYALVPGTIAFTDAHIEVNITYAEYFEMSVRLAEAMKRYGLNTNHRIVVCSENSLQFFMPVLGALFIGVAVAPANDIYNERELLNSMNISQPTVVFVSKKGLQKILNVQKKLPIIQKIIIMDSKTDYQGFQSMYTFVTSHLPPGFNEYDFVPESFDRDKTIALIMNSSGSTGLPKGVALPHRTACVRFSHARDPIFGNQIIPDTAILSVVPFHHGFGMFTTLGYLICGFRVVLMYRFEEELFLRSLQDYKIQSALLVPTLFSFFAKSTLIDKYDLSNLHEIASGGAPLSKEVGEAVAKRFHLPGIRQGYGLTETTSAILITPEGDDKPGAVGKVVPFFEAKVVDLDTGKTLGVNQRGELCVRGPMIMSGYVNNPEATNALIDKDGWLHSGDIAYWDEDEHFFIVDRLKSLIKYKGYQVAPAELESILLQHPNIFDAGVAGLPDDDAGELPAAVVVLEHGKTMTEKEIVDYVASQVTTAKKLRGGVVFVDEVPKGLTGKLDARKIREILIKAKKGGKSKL
Where [6] appears, read: NF54, read-out: Stg V Gam dose response IC50 (µM) (n=3), 10-point dose response, n=3, 72 h.
Where [7] appears, read: NF54, 72 h, read-out: Stg V Gam dose response IC50 (µM) (n=3), 10-point dose response, n=3, 72 h.
[8] abbreviates: NF54, 72 h, read-out: GAM V IC50, stage V gametocytes, 72 h.

Read-outs that look alike come from different tables or passages of the source.

In the case of `CCCc1nc2c(c(C)c(C)n2CCN(C)C)c(N)c1CC` [DDD01026700, CCCC1=C(CC)C(N)=C2C(C)=C(C)N(CCN(C)C)C2=N1], the IC50 in data set [1] (setting [6]) was found to be 0.97 µM. Also, the inhibition at 2 µM in data set [1] (NF54, Table S6, 2uM, n=2, 72 h) stood at 49.2%.

As for `CCc1c(-c2ccccc2)nc2c(c(C)c(C)n2CCN(C)C)c1N` [DDD01026714, CCC1=C(N=C2N(CCN(C)C)C(C)=C(C)C2=C1N)C1=CC=CC=C1], the IC50 in data set [1] (setting [7]) stood at 0.868 µM. Besides, the inhibition at 2 µM in data set [1] (NF54, 72 h) was 56.1%.

In the case of `CC(C)Nc1nc2c(c(NC3CC3)n1)CCN(C1CCOCC1)CC2` [DDD01029612, CC(C)NC1=NC2=C(CCN(CC2)C2CCOCC2)C(NC2CC2)=N1], in data set [1] (setting [7]), the IC50 amounted to 4.48 µM. Moreover, the inhibition at 2 µM in data set [1] (NF54, 72 h) is 57%.

For the molecule `Cc1cccc(CN2Cc3[nH]nc(COCCO)c3C2)n1` [DDD01030906, CC1=CC=CC(CN2CC3=C(C2)C(COCCO)=NN3)=N1], in data set [1] (setting [7]), the concentration for half-maximal inhibition (IC50) was determined as 1.47 µM. Moreover, in data set [1] (NF54, 72 h), the inhibition at 2 µM is 82.1%.

Consider `CC(C)Nc1nc2c(c(NC3CC3)n1)CCN(Cc1nccn1C)CC2` [DDD01031405, CC(C)NC1=NC2=C(CCN(CC3=NC=CN3C)CC2)C(NC2CC2)=N1], for which, in data set [1] (setting [7]), the half-inhibitory concentration (IC50) was 2.65 µM. The inhibition at 2 µM in data set [1] (NF54, 72 h) amounted to 58.7%.

Take `Cc1cccc(CN2C[C@@H]3COC[C@H](NS(C)(=O)=O)[C@@H]3C2)n1` [DDD01032715, CC1=CC=CC(CN2C[C@@H]3COC[C@H](NS(C)(=O)=O)[C@@H]3C2)=N1]: in data set [1] (setting [6]), the half-inhibitory concentration (IC50) was found to be 1.54 µM. Moreover, the inhibition at 2 µM in data set [1] (NF54, Table S6, 2uM, n=2, 72 h) was 70.6%.

Consider `Cc1cccc(CN2CCC3(CCN(c4cccnc4)C3=O)C2)n1` (stereo not shown) [DDD01033290, CC1=CC=CC(CN2CCC3(CCN(C3=O)C3=CC=CN=C3)C2)=N1], for which the IC50 in data set [1] (setting [6]) was found to be 0.46 µM. Also, in data set [1] (NF54, Table S6, 2uM, n=2, 72 h), the inhibition at 2 µM worked out at 75.8%.

As for `CO[C@H]1CCN(Cc2cccc(C)n2)[C@@H]2CN(Cc3cccnc3)C[C@H]12` [DDD01036932, CO[C@H]1CCN(CC2=CC=CC(C)=N2)[C@@H]2CN(CC3=CC=CN=C3)C[C@H]12], in data set [1] (setting [7]), the IC50 turned out to be 0.276 µM. The inhibition at 2 µM in data set [1] (NF54, 72 h) came out at 78.9%.

Turning to `Cc1cc(C)n(C2=NC(NCCC(C)C)c3c(sc4c3CCCC4)N2)n1` (stereo not shown) [DDD01037468, CC(C)CCNC1N=C(NC2=C1C1=C(CCCC1)S2)N1N=C(C)C=C1C], in data set [1] (setting [7]), the concentration for half-maximal inhibition (IC50) is more than 10 µM.

`Cc1cc(C)n(C2=NC(NCCCO)c3c(sc4c3CCCC4)N2)n1` (stereo not shown) [DDD01037469, CC1=NN(C(C)=C1)C1=NC(NCCCO)C2=C(N1)SC1=C2CCCC1]: the 50% inhibitory concentration (IC50) in data set [1] (setting [7]) is 0.39 µM. Besides, the inhibition at 2 µM in data set [1] (NF54, 72 h) was 91.5%.

Consider `c1ccc(CCN2CCCC2c2cccc(Nc3nccs3)n2)cc1` (stereo not shown) [DDD01056785, C(CC1=CC=CC=C1)N1CCCC1C1=CC=CC(NC2=NC=CS2)=N1], for which the concentration for half-maximal inhibition (IC50) came to 0.39 µM in data set [1] (setting [8]) and 0.392 µM in data set [1] (setting [7]). Also, in data set [1] (NF54, 72 h), the inhibition at 2 µM is 73.4%.

As to `Cc1cnc(Nc2cccc(C3CCCN3Cc3cn(C)nc3C)n2)s1` (stereo not shown) [DDD01056825, CN1C=C(CN2CCCC2C2=NC(NC3=NC=C(C)S3)=CC=C2)C(C)=N1], the IC50 in data set [1] (setting [8]) amounted to 0.09 µM; in data set [1] (setting [7]), 0.095 µM. The inhibition at 2 µM in data set [1] (NF54, 72 h) came to 85.8%.

Take `Cc1ccccc1CN1CCCC1c1cccc(Nc2nccs2)n1` (stereo not shown) [DDD01057017, CC1=CC=CC=C1CN1CCCC1C1=CC=CC(NC2=NC=CS2)=N1]: the 50% inhibitory concentration (IC50) in data set [1] (setting [8]) amounted to 0.26 µM; in data set [1] (setting [7]), 0.261 µM.

As to `Cc1nn(C)cc1CN1CCCC1c1cccc(Nc2nccs2)n1` (stereo not shown) [DDD01057079, CN1C=C(CN2CCCC2C2=CC=CC(NC3=NC=CS3)=N2)C(C)=N1], the IC50 in data set [1] (setting [8]) turned out to be 0.58 µM; in data set [1] (setting [7]), 0.578 µM. In addition, in data set [1] (NF54, 72 h), the inhibition at 2 µM is 84.4%.

For `COc1cccc(CN2CCCC2c2cncc(Nc3nncs3)n2)c1` (stereo not shown) [DDD01058609, COC1=CC=CC(CN2CCCC2C2=CN=CC(NC3=NN=CS3)=N2)=C1], the IC50 in data set [1] (setting [8]) is 0.53 µM; in data set [1] (setting [7]), 0.534 µM. The inhibition at 2 µM in data set [1] (NF54, 72 h) stood at 63.5%.

`Cc1cccc(CN2CCCC2c2cncc(Nc3nncs3)n2)c1` (stereo not shown) [DDD01058843, CC1=CC=CC(CN2CCCC2C2=CN=CC(NC3=NN=CS3)=N2)=C1]: the IC50 in data set [1] (setting [8]) amounted to 0.32 µM; in data set [1] (setting [7]), 0.319 µM. Moreover, the inhibition at 2 µM in data set [1] (NF54, 72 h) stood at 78.8%.

On to `Cc1cccc(CNC(Cc2ccsc2)c2nc(C)c(C)s2)n1` (stereo not shown) [DDD01059048, CC1=C(C)N=C(S1)C(CC1=CSC=C1)NCC1=CC=CC(C)=N1], for which the half-maximal inhibitory concentration (IC50) in data set [1] (setting [7]) was 3.9 µM. The inhibition at 2 µM in data set [1] (NF54, 72 h) was found to be 65.3%.

As for `Cc1nc(Nc2ncccn2)cc(C2CCCN2CC(C)C)n1` (stereo not shown) [DDD01061131, CC(C)CN1CCCC1C1=CC(NC2=NC=CC=N2)=NC(C)=N1], the 50% inhibitory concentration (IC50) in data set [1] (setting [7]) is 6.69 µM. For the same molecule, the inhibition at 2 µM in data set [1] (NF54, 72 h) came to 66.6%.

For `Cn1cccc1CNCC1CCCn2cc(C(C)(C)C)nc21` (stereo not shown) [DDD01062585, CN1C=CC=C1CNCC1CCCN2C=C(N=C12)C(C)(C)C], the half-maximal inhibitory concentration (IC50) in data set [1] (setting [8]) worked out at 0.74 µM; in data set [1] (setting [7]), 0.741 µM. Moreover, the inhibition at 2 µM in data set [1] (NF54, 72 h) was 74%.

Turning to `CC(C)c1n[nH]c(C(=O)Nc2ccccn2)c1Br` [UCSD-0842403], the “HepG2 cytotoxicity 12pt dose response: Maximum inhibition (%)” value in data set [2] is listed as 31.1%. In data set [3], this molecule displayed a concentration for half-maximal inhibition (IC50) of more than 50000 nM and an inhibition at 2 µM of 24.9%. In data set [4], the 50% inhibitory concentration (IC50) is less than 0.282 nM and the Emax was 97.3%. In data set [5], the Emax was 97.1% and the IC50 is less than 24.4 nM.

With `COc1c(C)cnc(CN2CCC(N(C)C(C)C(N)=O)CC2)c1C` (stereo not shown) [UCSD-0844796], in data set [2], the “HepG2 Cytotoxicity primary screen (2uM): % Inhibition” value was 1.63% and the “HepG2 cytotoxicity 12pt dose response: Maximum inhibition (%)” value is -0.307%. In addition, in data set [3], the 50% inhibitory concentration (IC50) was more than 25000 nM. For the same molecule, in data set [4], the IC50 turned out to be 11700 nM and the Emax was found to be 87.4%. For the same molecule, in data set [5], the Emax is -2.93% and the IC50 was more than 25000 nM.

In the case of `Cc1noc(NC(=O)c2ccc(OC(F)(F)F)cc2)n1` [UCSD-0844950], the “HepG2 cytotoxicity 12pt dose response: Maximum inhibition (%)” value in data set [2] turned out to be 50.3%. In data set [3], this molecule registered an IC50 of 23700 nM and an inhibition at 2 µM of 4.58%. Further, in data set [4], the half-maximal inhibitory concentration (IC50) was found to be 8230 nM and the Emax came out at 93.2%. Also, in data set [5], the Emax is 29.1% and the concentration for half-maximal inhibition (IC50) was more than 25000 nM.

Take `Cc1noc(NC(=O)c2ccc(Br)s2)n1` [UCSD-0844983]: in data set [2], the “HepG2 Cytotoxicity primary screen (2uM): % Inhibition” value is on record as 5.11% and the “HepG2 cytotoxicity 12pt dose response: Maximum inhibition (%)” value is on record as 28.5%. In addition, the IC50 in data set [3] is more than 25000 nM. In data set [4], the IC50 worked out at 14700 nM and the Emax was 88.4%. Besides, in data set [5], the Emax was -1.54% and the IC50 is more than 25000 nM.

Consider `CC(C)N(CC(N)=O)Cc1csc(COc2ccc(F)cc2)n1` [UCSD-0845986], for which, in data set [2], the “HepG2 Cytotoxicity primary screen (2uM): % Inhibition” value amounted to 6.02% and the “HepG2 cytotoxicity 12pt dose response: Maximum inhibition (%)” value is reported as 68.7%. The IC50 in data set [3] was 23100 nM. Besides, in data set [4], the IC50 was found to be 14600 nM and the Emax came out at 97.4%. For the same molecule, in data set [5], the Emax is 5.14% and the half-inhibitory concentration (IC50) is more than 25000 nM.

For the molecule `Cc1cc(CN2CCN(C(c3ccccc3)c3ccccc3)CC2)no1` [UCSD-0846071], in data set [2], the “HepG2 cytotoxicity 12pt dose response: Maximum inhibition (%)” value turned out to be 4.68%. In data set [3], this molecule registered an IC50 of more than 25000 nM and an inhibition at 2 µM of 0.21%. Also, in data set [4], the IC50 was found to be 8970 nM and the Emax came to 104%. In data set [5], the Emax was found to be 14.1% and the concentration for half-maximal inhibition (IC50) was more than 25000 nM.

For the molecule `Cc1ccoc1C(=O)NC1CCN(Cc2csc3c(F)cccc23)CC1` [UCSD-0846562], in data set [2], the “HepG2 Cytotoxicity primary screen (2uM): % Inhibition” value is reported as -2.96% and the “HepG2 cytotoxicity 12pt dose response: Maximum inhibition (%)” value is listed as 25.1%. In data set [3], this molecule yielded an IC50 of more than 25000 nM. Also, the IC50 in data set [4] amounted to 11100 nM. Moreover, in data set [5], the Emax came to 3.24% and the IC50 is more than 25000 nM.

What is called IC50 is the concentration that inhibits the measured activity by half. The term inhibition denotes the change of the read-out against control, counted positive when it falls.

Values taken from publication PMC7155171, “Probing the Open Global Health Chemical Diversity Library for Multistage-Active Starting Points for Next-Generation Antimalarials” (ACS Infectious Diseases, 2020).
